Experimental findings from PMC10587151, “Ligand activation mechanisms of human KCNQ2 channel” (Nature Communications, 2023) are described below.

Data set [1] deals with T1, KCNQ2 (Homo sapiens, UniProt O43526). Kind of data set: cryo-EM structure ([…] Å); whole-cell patch clamp in CHO cells for the EC50. It counts as cell-based. More on the design: wild-type human KCNQ2 cDNA in pcDNA5/FRT, expressed in CHO cells, whole-cell patch clamp; no CaM co-transfection stated; not the 64-674 cryo-EM construct.
Target sequence in this assay (O43526 whole entry): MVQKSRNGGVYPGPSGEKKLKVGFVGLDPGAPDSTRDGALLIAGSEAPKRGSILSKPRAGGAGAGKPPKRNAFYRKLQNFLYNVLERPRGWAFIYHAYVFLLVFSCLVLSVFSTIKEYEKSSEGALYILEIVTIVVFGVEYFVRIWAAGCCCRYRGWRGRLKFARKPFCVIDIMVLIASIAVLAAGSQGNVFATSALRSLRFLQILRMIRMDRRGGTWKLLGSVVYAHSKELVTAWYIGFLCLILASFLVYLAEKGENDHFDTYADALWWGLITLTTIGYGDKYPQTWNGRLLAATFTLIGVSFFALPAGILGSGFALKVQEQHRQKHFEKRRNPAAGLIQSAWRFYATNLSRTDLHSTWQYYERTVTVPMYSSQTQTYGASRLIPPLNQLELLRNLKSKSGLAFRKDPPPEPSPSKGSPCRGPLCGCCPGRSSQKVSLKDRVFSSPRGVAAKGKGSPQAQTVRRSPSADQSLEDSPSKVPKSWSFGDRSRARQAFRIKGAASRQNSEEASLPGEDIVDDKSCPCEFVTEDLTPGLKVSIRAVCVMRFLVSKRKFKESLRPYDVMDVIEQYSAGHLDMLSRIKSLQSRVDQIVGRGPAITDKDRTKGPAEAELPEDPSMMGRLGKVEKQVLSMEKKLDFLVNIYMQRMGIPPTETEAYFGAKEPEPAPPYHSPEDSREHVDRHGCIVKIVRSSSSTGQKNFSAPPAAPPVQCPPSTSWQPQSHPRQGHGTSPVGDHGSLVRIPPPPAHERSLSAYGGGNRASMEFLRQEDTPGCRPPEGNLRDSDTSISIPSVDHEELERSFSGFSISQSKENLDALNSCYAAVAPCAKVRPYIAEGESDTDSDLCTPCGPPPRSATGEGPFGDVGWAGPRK
The target in data set [2] is T2, KCNQ2 (Homo sapiens, UniProt O43526, F104A).
T2 construct: residues 64–674; with calmodulin (CaM)
Kind of data set: cryo-EM structure ([…] Å), closed state. It counts as binding.

For data set [3], the target named is T1, KCNQ2. Kind of data set: cryo-EM structure ([…] Å); whole-cell patch clamp in CHO cells for the EC50. In kind it is cell-based. Also noted: residues 64–674; with calmodulin (CaM).
Data set [4] addresses T2, KCNQ2. Kind of data set: cryo-EM structure ([…] Å), open state, with one CBD co-bound. In kind it is binding.
In data set [5] the target is T1, KCNQ2. Kind of data set: cryo-EM structure ([…] Å), with CBD co-bound. More on the design: residues 64–674; with calmodulin (CaM).
Data set [6] deals with the molecule itself. Kind of data set: cryo-EM structure; KCNQ2 (strep tag) and CaM (His tag) co-expressed in HEK293S, complex purified on Strep-Tactin and Superose 6 in 20 mM Tris pH 8.0, 150 mM KCl, 0.02% GDN; incubated with 0.25 mM CBD, 0.15 mM HN37 and/or 1 mM PIP2; C4 symmetry; closed and open states.

Structures can show the parent of a compound that is named as a salt. Where two headings read alike, the source gives them in different places.

T2 sequence (O43526 64-674 F104A): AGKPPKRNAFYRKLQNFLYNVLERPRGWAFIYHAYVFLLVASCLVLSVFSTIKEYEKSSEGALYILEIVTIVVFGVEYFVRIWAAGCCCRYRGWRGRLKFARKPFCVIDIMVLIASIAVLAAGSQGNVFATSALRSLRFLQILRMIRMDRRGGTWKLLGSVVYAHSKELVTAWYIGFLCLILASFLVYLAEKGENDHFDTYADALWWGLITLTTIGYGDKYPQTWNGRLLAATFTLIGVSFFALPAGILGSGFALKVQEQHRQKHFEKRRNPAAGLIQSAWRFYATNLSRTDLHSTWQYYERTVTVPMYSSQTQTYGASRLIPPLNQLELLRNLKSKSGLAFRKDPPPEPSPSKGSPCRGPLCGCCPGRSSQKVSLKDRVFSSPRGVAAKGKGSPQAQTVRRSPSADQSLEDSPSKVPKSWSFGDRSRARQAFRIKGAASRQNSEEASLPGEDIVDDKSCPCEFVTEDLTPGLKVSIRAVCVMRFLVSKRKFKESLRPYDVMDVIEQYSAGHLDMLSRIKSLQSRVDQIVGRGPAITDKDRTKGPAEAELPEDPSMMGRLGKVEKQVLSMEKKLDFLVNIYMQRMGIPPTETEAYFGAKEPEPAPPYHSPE

On to `C=C(C)[C@@H]1CCC(C)=C[C@H]1c1c(O)cc(CCCCC)cc1O` [CBD, cannabidiol], for which, on KCNQ2 [1], the EC50 (in general, the concentration at which the effect is half-maximal) is 4500 ± 1790 nM. Also, the “cryo-EM structure (2.7 Å), closed state” value at KCNQ2 [2] is given as “In both maps, CBDA molecules maintain strong densities but those for CBDB are barely observed”.
For `C#CCN(Cc1ccc(F)cc1)c1cc(C)c(NC(=O)OC)c(C)c1` [HN37], the EC50 on KCNQ2 [3] was found to be 28.5 ± 2.99 nM.
Consider `CCCCCCCC(=O)OC[C@H](COP(=O)(O)O[C@@H]1[C@H](O)[C@H](O)[C@@H](OP(=O)(O)O)[C@H](OP(=O)(O)O)[C@H]1O)OC(=O)CCCCCCC` [PIP2, 1,2-dioctanoyl-sn-glycero-3-phospho-(1’-myo-inositol-4’,5’-bisphosphate) (ammonium salt)], for which the “cryo-EM structure (3.5 Å), open state, with one CBD co-bound” value on KCNQ2 [4] was “KCNQ2-CaMF104A-CBD-PIP2-II is in an open state with the PIP2 bound”. At KCNQ2 [5], the “cryo-EM structure (3.1 Å), with CBD co-bound” value is “between VSD and PD, one PIP2 molecule is assigned, with its fatty acid chains switched by S1III/S4III and S5II”.

B1: human KCNQ2 (residues 64-674, C-terminal strep tag) (domain or fragment, UniProt O43526-1 64-674, looked up)
chain: AGKPPKRNAFYRKLQNFLYNVLERPRGWAFIYHAYVFLLVFSCLVLSVFSTIKEYEKSSEGALYILEIVTIVVFGVEYFVRIWAAGCCCRYRGWRGRLKFARKPFCVIDIMVLIASIAVLAAGSQGNVFATSALRSLRFLQILRMIRMDRRGGTWKLLGSVVYAHSKELVTAWYIGFLCLILASFLVYLAEKGENDHFDTYADALWWGLITLTTIGYGDKYPQTWNGRLLAATFTLIGVSFFALPAGILGSGFALKVQEQHRQKHFEKRRNPAAGLIQSAWRFYATNLSRTDLHSTWQYYERTVTVPMYSSQTQTYGASRLIPPLNQLELLRNLKSKSGLAFRKDPPPEPSPSKGSPCRGPLCGCCPGRSSQKVSLKDRVFSSPRGVAAKGKGSPQAQTVRRSPSADQSLEDSPSKVPKSWSFGDRSRARQAFRIKGAASRQNSEEASLPGEDIVDDKSCPCEFVTEDLTPGLKVSIRAVCVMRFLVSKRKFKESLRPYDVMDVIEQYSAGHLDMLSRIKSLQSRVDQIVGRGPAITDKDRTKGPAEAELPEDPSMMGRLGKVEKQVLSMEKKLDFLVNIYMQRMGIPPTETEAYFGAKEPEPAPPYHSPE
notes: Human voltage-gated potassium channel KCNQ2, N- and C-terminal regions truncated, residues 64-674; numbers count on: NP_004509.2; The vector is a modified pEZT-BM; also called WT KCNQ2; KCNQ2 of the KCNQ2-CaM complex; source: HEK293S suspension cells, BacMam baculovirus, co-expressed with CaM, purified (Strep-Tactin, Superose 6); not shown: strep tag, C-terminal, kept
With B1, the stoichiometry N – broadly, a count of units in the complex or per binding partner – in data set [6] is 4.
